≈ marks a conversion by molar mass, not a printed value.
How the values were obtained:
[1] = molecular target: Methionine--tRNA ligase (Escherichia coli K-12) (UniProt P00959); assay: Ability to inhibit Escherichia coli methionyl-tRNA synthetase was determined at a concentration of 270 uM
[2] = tested on: Staphylococcus aureus; assay: Antimicrobial activity against Staphylococcus aureus 1538p was determined; assay type: functional
[3] = tested on: Pseudomonas aeruginosa; assay: Antimicrobial activity against Pseudomonas aeruginosa 1912E was determined; assay type: functional
[4] = tested on: Bacillus subtilis; assay: Antimicrobial activity against Bacillus subtilis ATCC 6633 was determined; assay type: functional
[5] = tested on: Enterococcus faecalis; assay: Antimicrobial activity against Enterococcus faecalis 29212 was determined; assay type: functional
[6] = tested on: Serratia marcescens; assay: Antimicrobial activity against Serratia marcescens 1826E was determined; assay type: functional
[7] = tested on: Citrobacter freundii; assay: Antimicrobial activity against Citrobacter freundii 8090 was determined; assay type: functional
[8] = tested on: Klebsiella pneumoniae; assay: Antimicrobial activity against Klebsiella pneumoniae 2011E was determined; assay type: functional
[9] = tested on: Escherichia coli; assay: Antimicrobial activity against Escherichia coli JM109 was determined; assay type: functional
[10] = tested on: Proteus vulgaris; assay: Antimicrobial activity against Proteus vulgaris 6059 was determined; assay type: functional
[11] = tested on: Salmonella typhimurium; assay: Antimicrobial activity against Salmonella Typhimurium 14028 was determined; assay type: functional, Salmonella enterica subsp. enterica serovar Typhimurium; details: Salmonella enterica

Chain of Methionine--tRNA ligase (Escherichia coli K-12) (P00959 2-677 limits assumed): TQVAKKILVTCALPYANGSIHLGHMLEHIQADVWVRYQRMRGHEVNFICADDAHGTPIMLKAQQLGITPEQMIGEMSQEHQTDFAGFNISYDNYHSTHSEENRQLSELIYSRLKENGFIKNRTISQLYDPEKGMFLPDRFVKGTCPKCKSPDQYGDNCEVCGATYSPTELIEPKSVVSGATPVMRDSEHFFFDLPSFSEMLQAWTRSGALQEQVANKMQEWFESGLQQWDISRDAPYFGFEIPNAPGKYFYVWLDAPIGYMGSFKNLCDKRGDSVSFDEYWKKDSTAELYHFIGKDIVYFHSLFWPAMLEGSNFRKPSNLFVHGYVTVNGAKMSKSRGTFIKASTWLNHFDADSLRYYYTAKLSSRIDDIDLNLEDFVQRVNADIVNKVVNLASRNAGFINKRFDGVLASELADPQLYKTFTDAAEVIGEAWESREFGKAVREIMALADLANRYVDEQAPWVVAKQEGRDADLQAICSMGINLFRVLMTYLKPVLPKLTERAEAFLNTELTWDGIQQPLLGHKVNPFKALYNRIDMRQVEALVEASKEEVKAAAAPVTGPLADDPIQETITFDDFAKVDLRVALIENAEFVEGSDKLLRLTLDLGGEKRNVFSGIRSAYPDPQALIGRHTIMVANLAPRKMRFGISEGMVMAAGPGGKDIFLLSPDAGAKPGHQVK

`COC(=O)[C@@H](N)CCSC` showed an inhibition [1] of 20.4%.

`CSCC[C@H](NC(=O)OC(C)(C)C)C(=O)NOC(=O)OC(C)(C)C` gave an inhibition [1] of 0%.

In the case of `COC(=O)CCSC`, the inhibition [1] is reported as 3.8%.

In the case of `CS(=O)(=O)CC[C@H](N)C(=O)NO`, the inhibition [1] is reported as 0%.

With `CSCC[C@H](N)C(=O)Nc1cccc([N+](=O)[O-])c1` the inhibition [1] was 0%.

`CSCC[C@H](N)C(=O)NCO` was tested, and the inhibition [1] was 23.1%.

In the case of `CSCCC(=O)O`, the inhibition [1] is reported as 5.9%.

With `CSCC[C@H](NC(=O)OC(C)(C)C)C(=O)NO` the inhibition [1] was 11.4%.

For `CSCCO`, the inhibition [1] was 3.2%.

Work on `CSCCCCO` yielded an inhibition [1] of 0%.

`CSCCC(N)C(=O)Nc1ccc2ccccc2c1` (stereo not drawn) gave an inhibition [1] of 22.3%.

`CSCCC=O` was tested, and the inhibition [1] was 4.7%.

With `CSCCc1n[nH]cc1C(=O)O` the inhibition [1] was 8.3%.

Work on `CSCCC#N` yielded an inhibition [1] of 7.8%.

`CSCC[C@H](N)C(=O)Nc1ccc([N+](=O)[O-])cc1` gave an inhibition [1] of 33.5%.

`CSCC[C@H](NC(=O)OC(C)(C)C)C(=O)O` was tested, and the inhibition [1] was 11.3%.

Work on `C[S+]([O-])CC[C@H](N)C(=O)NO` (stereo partly drawn) yielded an inhibition [1] of 8.5%.

`CSCC[C@H](N)C(N)=O` was tested, and the inhibition [1] was 17.8%.

`CSCC[C@H](N)C(=O)NOC(C)(C)C` showed an inhibition [1] of 56.2%.

For `COC(=O)CC(=O)CCSC`, the inhibition [1] was 0.4%.

Compound `CSCCCO` has an inhibition [1] of 0%.

`CCOC(=O)c1c[nH]nc1CCSC` gave an inhibition [1] of 0%.

`CSCCC(N)C(=O)NO` (stereo not drawn) was tested, and the MIC [2] was > 128 µg/mL, the MIC [3] was > 128 µg/mL and the MIC [4] was > 128 µg/mL. The MIC [5] was > 128 µg/mL, the MIC [6] was > 128 µg/mL and the MIC [7] was 8 µg/mL (≈ 48.7 µM). For the same compound, the MIC [8] was > 128 µg/mL, the MIC [9] was 2 µg/mL (≈ 12.2 µM) and the MIC [10] was 4 µg/mL (≈ 24.4 µM). The MIC [11] was > 128 µg/mL.

In the case of `CSCCN1C(=O)c2ccccc2S1(=O)=O`, the inhibition [1] is reported as 16.3%.

With `CSCCC(=O)Cl` the inhibition [1] was 14%.

`CSCCc1nn[nH]n1` was tested, and the inhibition [1] was 16.2%.

In the case of `CSCCC(N)C(=O)NO.O=C(O)C(F)(F)F` (stereo not drawn), the MIC [2] is reported as > 128 µg/mL, the MIC [3] is reported as > 128 µg/mL and the MIC [4] is reported as > 128 µg/mL. The MIC [5] was > 128 µg/mL, the MIC [6] was > 128 µg/mL and the MIC [7] was > 128 µg/mL. For the same compound, the MIC [8] was > 128 µg/mL, the MIC [9] was > 128 µg/mL and the MIC [10] was > 128 µg/mL. The MIC [11] was > 128 µg/mL.

For `CSCC[C@H](N)C(=O)C(C)C`, the inhibition [1] was 0%.

In the case of `CSCC[C@H](N)C(=O)NO.O=C(O)C(F)(F)F`, the MIC [2] is reported as > 128 µg/mL, the MIC [3] is reported as > 128 µg/mL and the MIC [4] is reported as > 128 µg/mL. For the same compound, the MIC [5] was > 128 µg/mL, the MIC [6] was > 128 µg/mL and the inhibition [1] was 81.5%. The MIC [7] was 8 µg/mL, the MIC [8] was > 128 µg/mL and the MIC [9] was 1 µg/mL. For the same compound, the MIC [10] was 2 µg/mL and the MIC [11] was > 128 µg/mL.

`CSCCc1cc(O)[nH]n1` gave an inhibition [1] of 1.8%.

— ChEMBL document CHEMBL1131518, “Methionine analogues as inhibitors of methionyl-tRNA synthetase” (1998)
